Measured values: PubChem BioAssay AID1963438 (Molecular Pharmacology Branch, DTP, NCI, 2024)
Where “and” joins values, the source holds several entries; their conditions need not be identical. Equal values may be shown once.

Test system: NCI-H510 multicellular tumor spheroid growth, % test/control
Assay: Anticancer human tumor NCI-H510 cell line growth inhibition [Asc];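 note: spheroids exposed to agents for 7 days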;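 for viability, T/C: 100% = DMSO vehicle control wells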
Conditions: for viability, T/C: stronger effect = lower value
In short: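 Tumor cells were grown as complex spheroids with human endothelial cells (HUVEC) and human mesenchymal stem cells as stroma. Agents were tested alone and in combination, in half-log steps down from the clinical Cmax, or from 10 microM where Cmax was unknown.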

[1] = curve of first compound, second compound 0.01 µM
[2] = curve of first compound, second compound 0.0316 µM
[3] = curve of first compound, second compound 0.1 µM
[4] = curve of first compound, second compound 0.316 µM
[5] = curve of first compound, second compound 1 µM

`C=C(F)C(=O)N1CCN(c2nc(OCC3CCCN3C)nc3c2CCN(c2cccc4cccc(Cl)c24)C3)CC1CC#N` (centres undefined) + CNC(C)C(=O)NC1CN(S(=O)(=O)c2cccc(S(=O)(=O)N3CCC4CCC(C(=O)NC(c5ccccc5)c5ccccc5)N4C(=O)C(NC(=O)C(C)NC)C3)c2)CCC2CCC(C(=O)NC(c3ccccc3)c3ccccc3)N2C1=O gave an IC50 [1] of 1.96 µM, an IC50 [2] of 1.86 µM and an IC50 [3] of 1.75 µM. The IC50 [4] was 1.7 µM, the IC50 [5] was 1.83 µM and the viability, T/C (second compound 0.01 µM, first compound 0.0316 µM) was 125%. The viability, T/C (second compound 0.01 µM, first compound 0.1 µM) was 117%, the viability, T/C (second compound 0.01 µM, first compound 0.316 µM) was 108% and the viability, T/C (second compound 0.01 µM, first compound 1 µM) was 116%. It also gave a viability, T/C (second compound 0.01 µM, first compound 3.16 µM) of 2.75%, a viability, T/C (second compound 0.01 µM, first compound 10 µM) of 0.14% and a viability, T/C (second compound 0.0316 µM, first compound 0.0316 µM) of 115%. The viability, T/C (second compound 0.0316 µM, first compound 0.1 µM) was 101%, the viability, T/C (second compound 0.0316 µM, first compound 0.316 µM) was 104% and the viability, T/C (second compound 0.0316 µM, first compound 1 µM) was 108%. The viability, T/C (second compound 0.0316 µM, first compound 3.16 µM) was 1.63%, the viability, T/C (second compound 0.0316 µM, first compound 10 µM) was 0.13% and the viability, T/C (second compound 0.1 µM, first compound 0.0316 µM) was 102%. The viability, T/C (second compound 0.1 µM, first compound 0.1 µM) was 119%, the viability, T/C (second compound 0.1 µM, first compound 0.316 µM) was 110% and the viability, T/C (second compound 0.1 µM, first compound 1 µM) was 96.4%. For the same compound, the viability, T/C (second compound 0.1 µM, first compound 3.16 µM) was 1.1%, the viability, T/C (second compound 0.1 µM, first compound 10 µM) was 0.14% and the viability, T/C (second compound 0.316 µM, first compound 0.0316 µM) was 97.4%. For the same compound, the viability, T/C (second compound 0.316 µM, first compound 0.1 µM) was 124%, the viability, T/C (second compound 0.316 µM, first compound 0.316 µM) was 115% and the viability, T/C (second compound 0.316 µM, first compound 1 µM) was 89.4%. For the same compound, the viability, T/C (second compound 0.316 µM, first compound 3.16 µM) was 4.39%, the viability, T/C (second compound 0.316 µM, first compound 10 µM) was 0.13% and the viability, T/C (second compound 1 µM, first compound 0.0316 µM) was 115%. The viability, T/C (second compound 1 µM, first compound 0.1 µM) was 105%, the viability, T/C (second compound 1 µM, first compound 0.316 µM) was 108% and the viability, T/C (second compound 1 µM, first compound 1 µM) was 104%. For the same compound, the viability, T/C (second compound 1 µM, first compound 3.16 µM) was 0.85% and the viability, T/C (second compound 1 µM, first compound 10 µM) was 0.22%.
In the case of `Cc1nc(N2CCC3(CC2)COC(C)C3N)c(CO)nc1Sc1ccnc(N)c1Cl` (centres undefined), the viability, T/C (compound 0.00949 µM) is reported as 103% and 93.2% and 86.2%, the viability, T/C (compound 0.03 µM) is reported as 101% and 121% and 91% and the viability, T/C (compound 0.0949 µM) is reported as 103% and 109% and 98.7%. For the same compound, the viability, T/C (compound 0.3 µM) was 99% and 118% and 99.2%, the viability, T/C (compound 0.949 µM) was 96.9% and 107% and 96.8% and the viability, T/C (compound 3 µM) was 100% and 106% and 80.6%. The IC50 (curve of compound) was greater than 3 µM.
In the case of `CCN1CCN(Cc2ccc(Nc3ncc(F)c(-c4cc(F)c5nc(C)n(C(C)C)c5c4)n3)nc2)CC1`, the viability, T/C (compound 0.00316 µM) is reported as 99.7% and 83.9% and 97.2%, the viability, T/C (compound 0.01 µM) is reported as 95.4% and 91.7% and 83.9% and the viability, T/C (compound 0.0316 µM) is reported as 104% and 102% and 97.5%. The viability, T/C (compound 0.1 µM) was 93.1% and 78.6% and 112%, the viability, T/C (compound 0.316 µM) was 99.7% and 82.1% and 106% and the viability, T/C (compound 1 µM) was 76.2% and 98% and 106%. The IC50 (curve of compound) was greater than 1 µM.
In the case of `O=C(c1ccc(F)c(F)c1Nc1ccc(I)cc1F)N1CC(O)([C@@H]2CCCCN2)C1` + CCN1C(C(=O)NC23CCC(C(=O)O)(CC2)CC3)C(c2cccc(Cl)c2F)C2(C(=O)Nc3cc(Cl)ccc32)C12CCCCC2, the IC50 (curve of first compound, second compound 0.03 µM) is reported as greater than 1 µM, the IC50 (curve of first compound, second compound 0.0949 µM) is reported as greater than 1 µM and the IC50 (curve of first compound, second compound 0.3 µM) is reported as greater than 1 µM. It also gave an IC50 (curve of first compound, second compound 0.949 µM) greater than 1 µM, an IC50 (curve of first compound, second compound 3 µM) greater than 1 µM and a viability, T/C (second compound 0.03 µM, first compound 0.00316 µM) of 95.8%. It also gave a viability, T/C (second compound 0.03 µM, first compound 0.01 µM) of 126%, a viability, T/C (second compound 0.03 µM, first compound 0.0316 µM) of 130% and a viability, T/C (second compound 0.03 µM, first compound 0.1 µM) of 121%. For the same compound, the viability, T/C (second compound 0.03 µM, first compound 0.316 µM) was 103%, the viability, T/C (second compound 0.03 µM, first compound 1 µM) was 103% and the viability, T/C (second compound 0.0949 µM, first compound 0.00316 µM) was 127%. It also gave a viability, T/C (second compound 0.0949 µM, first compound 0.01 µM) of 124%, a viability, T/C (second compound 0.0949 µM, first compound 0.0316 µM) of 105% and a viability, T/C (second compound 0.0949 µM, first compound 0.1 µM) of 95.7%. For the same compound, the viability, T/C (second compound 0.0949 µM, first compound 0.316 µM) was 126%, the viability, T/C (second compound 0.0949 µM, first compound 1 µM) was 116% and the viability, T/C (second compound 0.3 µM, first compound 0.00316 µM) was 122%. The viability, T/C (second compound 0.3 µM, first compound 0.01 µM) was 111%, the viability, T/C (second compound 0.3 µM, first compound 0.0316 µM) was 120% and the viability, T/C (second compound 0.3 µM, first compound 0.1 µM) was 119%. The viability, T/C (second compound 0.3 µM, first compound 0.316 µM) was 117%, the viability, T/C (second compound 0.3 µM, first compound 1 µM) was 91.5% and the viability, T/C (second compound 0.949 µM, first compound 0.00316 µM) was 120%. It also gave a viability, T/C (second compound 0.949 µM, first compound 0.01 µM) of 132%, a viability, T/C (second compound 0.949 µM, first compound 0.0316 µM) of 132% and a viability, T/C (second compound 0.949 µM, first compound 0.1 µM) of 131%. For the same compound, the viability, T/C (second compound 0.949 µM, first compound 0.316 µM) was 118%, the viability, T/C (second compound 0.949 µM, first compound 1 µM) was 116% and the viability, T/C (second compound 3 µM, first compound 0.00316 µM) was 134%. For the same compound, the viability, T/C (second compound 3 µM, first compound 0.01 µM) was 160%, the viability, T/C (second compound 3 µM, first compound 0.0316 µM) was 140% and the viability, T/C (second compound 3 µM, first compound 0.1 µM) was 114%. It also gave a viability, T/C (second compound 3 µM, first compound 0.316 µM) of 124% and a viability, T/C (second compound 3 µM, first compound 1 µM) of 127%.
Compound `NC(=O)C(=Cn1cnc(-c2cc(C(F)(F)F)cc(C(F)(F)F)c2)n1)c1cncnc1` + CNC(C)C(=O)NC1CN(S(=O)(=O)c2cccc(S(=O)(=O)N3CCC4CCC(C(=O)NC(c5ccccc5)c5ccccc5)N4C(=O)C(NC(=O)C(C)NC)C3)c2)CCC2CCC(C(=O)NC(c3ccccc3)c3ccccc3)N2C1=O has an IC50 [1] greater than 0.3 µM, an IC50 [2] greater than 0.3 µM and an IC50 [3] greater than 0.3 µM. The IC50 [4] was greater than 0.3 µM, the IC50 [5] was greater than 0.3 µM and the viability, T/C (second compound 0.01 µM, first compound 0.000949 µM) was 104%. The viability, T/C (second compound 0.01 µM, first compound 0.003 µM) was 112%, the viability, T/C (second compound 0.01 µM, first compound 0.00949 µM) was 104% and the viability, T/C (second compound 0.01 µM, first compound 0.03 µM) was 92.3%. It also gave a viability, T/C (second compound 0.01 µM, first compound 0.0949 µM) of 110%, a viability, T/C (second compound 0.01 µM, first compound 0.3 µM) of 101% and a viability, T/C (second compound 0.0316 µM, first compound 0.000949 µM) of 92.3%. For the same compound, the viability, T/C (second compound 0.0316 µM, first compound 0.003 µM) was 101%, the viability, T/C (second compound 0.0316 µM, first compound 0.00949 µM) was 102% and the viability, T/C (second compound 0.0316 µM, first compound 0.03 µM) was 108%. The viability, T/C (second compound 0.0316 µM, first compound 0.0949 µM) was 112%, the viability, T/C (second compound 0.0316 µM, first compound 0.3 µM) was 108% and the viability, T/C (second compound 0.1 µM, first compound 0.000949 µM) was 110%. For the same compound, the viability, T/C (second compound 0.1 µM, first compound 0.003 µM) was 94.5%, the viability, T/C (second compound 0.1 µM, first compound 0.00949 µM) was 107% and the viability, T/C (second compound 0.1 µM, first compound 0.03 µM) was 110%. The viability, T/C (second compound 0.1 µM, first compound 0.0949 µM) was 112%, the viability, T/C (second compound 0.1 µM, first compound 0.3 µM) was 96.8% and the viability, T/C (second compound 0.316 µM, first compound 0.000949 µM) was 115%. For the same compound, the viability, T/C (second compound 0.316 µM, first compound 0.003 µM) was 116%, the viability, T/C (second compound 0.316 µM, first compound 0.00949 µM) was 109% and the viability, T/C (second compound 0.316 µM, first compound 0.03 µM) was 87.3%. The viability, T/C (second compound 0.316 µM, first compound 0.0949 µM) was 109%, the viability, T/C (second compound 0.316 µM, first compound 0.3 µM) was 95.9% and the viability, T/C (second compound 1 µM, first compound 0.000949 µM) was 93.7%. For the same compound, the viability, T/C (second compound 1 µM, first compound 0.003 µM) was 107%, the viability, T/C (second compound 1 µM, first compound 0.00949 µM) was 93.6% and the viability, T/C (second compound 1 µM, first compound 0.03 µM) was 104%. The viability, T/C (second compound 1 µM, first compound 0.0949 µM) was 105% and the viability, T/C (second compound 1 µM, first compound 0.3 µM) was 92.9%.
